# Columns and labels:
# c-Kit(V654A) = molecular target: T1, c-Kit(V654A) (Homo sapiens, UniProt P10721, V654A); experiment: c-Kit(V654A) assay (33P-ATP filter binding kinase assay); assay type: biochemical; conditions: recombinant human c-Kit aa 544-end V654A, ATP 200 μM
# T1 construct: recombinant human c-Kit, amino acids 544-end containing the V654A mutation; GST (N)
# Summary of the method: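 Radiometric filter-binding read-out: substrate 33P incorporation counted by scintillation after P30 filtermat washes in 75 mM phosphoric acid and methanol. Enzyme: N-GST recombinant human c-Kit aa 544-end carrying V654A.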
# [1] = molecular target: T2, GIST430/654 cell line expressing mutated constitutively active cKIT receptor tyrosine kinase (Δ560-576 deletion and V654A point mutation) (Homo sapiens, UniProt P10721, DEL560-576/V654A); experiment: Cellular cKIT autophosphorylation (phospho-Y307-cKIT, Luminex bead assay) in GIST430/654 cells; assay type: cell-based; conditions: compounds 45 min, read-out: GIST 430/654 IC50
# T2 construct: endogenous in cells; host or cells: GIST430/654 cells
# Summary of the method: (§1)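 Phospho-Y307 cKIT in lysates was measured on a Luminex bead assay, with total-cKIT capture overnight at 4 °C and phosphospecific plus PE secondary detection. Cells had 45 min exposure to a compound dilution series the day after plating: GIST430 (Δ560-576) or GIST430/654 (Δ560-576/V654A, grown with 100 nM imatinib). IC50 values are relative to 0.3% DMSO-treated cells.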
# [2] = Determination of solubility; conditions: 20 mM Sorensen phosphate buffer, pH 7.4, aqueous buffer, kinetic from dmso stock
# Experimental: (§2) In a 96 well filtration plate, 2 μL of a 10 mM solution of the test compound in DMSO is added to 98 μL of 20 mM Sorensen phosphate buffer with pH 7.4. The mixture is incubated at room temperature for 120 min while agitating at 250 rpm followed by centrifugation at 2500 rpm for 3 min. After dilution by a factor of 2, the concentration of the test compound is determined using HPLC/UPLC with detection at a suitable wavelength and by comparison to a corresponding compound standard.
# [3] = Determination of Efflux-Ratio (ER) in Caco-2 cells; conditions: human, Caco-2, pH 7.4
# [4] = molecular target: T3, GIST430 cell line expressing constitutive active cKIT receptor tyrosine kinase (Δ560-576 deletion) (Homo sapiens, UniProt P10721, DEL560-576); experiment: Cellular cKIT autophosphorylation (phospho-Y307-cKIT, Luminex bead assay) in GIST430 cells; assay type: cell-based; conditions: cKIT autophosphorylation, GIST430 cells, compounds 45 min; read-out: GIST 430 IC50
# T3 construct: endogenous in cells; host or cells: GIST430 cells
# Summary of the method: as §1
# [5] = pH 7.4
# Experimental: as §2
# T1 sequence (P10721 544-976 V654A): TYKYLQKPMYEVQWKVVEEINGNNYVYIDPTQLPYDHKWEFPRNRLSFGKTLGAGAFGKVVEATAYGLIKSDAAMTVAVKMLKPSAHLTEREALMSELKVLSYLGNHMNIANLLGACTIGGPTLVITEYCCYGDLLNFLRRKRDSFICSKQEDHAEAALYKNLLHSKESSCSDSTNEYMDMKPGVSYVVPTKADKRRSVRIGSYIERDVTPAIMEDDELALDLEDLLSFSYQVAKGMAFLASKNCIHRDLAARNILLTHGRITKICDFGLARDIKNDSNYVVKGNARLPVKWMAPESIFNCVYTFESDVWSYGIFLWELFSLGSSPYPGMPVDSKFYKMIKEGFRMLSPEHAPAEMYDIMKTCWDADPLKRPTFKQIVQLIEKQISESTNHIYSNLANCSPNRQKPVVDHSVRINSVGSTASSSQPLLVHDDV
# T2 sequence (P10721 with tags, fused parts or gaps DEL560-576/V654A): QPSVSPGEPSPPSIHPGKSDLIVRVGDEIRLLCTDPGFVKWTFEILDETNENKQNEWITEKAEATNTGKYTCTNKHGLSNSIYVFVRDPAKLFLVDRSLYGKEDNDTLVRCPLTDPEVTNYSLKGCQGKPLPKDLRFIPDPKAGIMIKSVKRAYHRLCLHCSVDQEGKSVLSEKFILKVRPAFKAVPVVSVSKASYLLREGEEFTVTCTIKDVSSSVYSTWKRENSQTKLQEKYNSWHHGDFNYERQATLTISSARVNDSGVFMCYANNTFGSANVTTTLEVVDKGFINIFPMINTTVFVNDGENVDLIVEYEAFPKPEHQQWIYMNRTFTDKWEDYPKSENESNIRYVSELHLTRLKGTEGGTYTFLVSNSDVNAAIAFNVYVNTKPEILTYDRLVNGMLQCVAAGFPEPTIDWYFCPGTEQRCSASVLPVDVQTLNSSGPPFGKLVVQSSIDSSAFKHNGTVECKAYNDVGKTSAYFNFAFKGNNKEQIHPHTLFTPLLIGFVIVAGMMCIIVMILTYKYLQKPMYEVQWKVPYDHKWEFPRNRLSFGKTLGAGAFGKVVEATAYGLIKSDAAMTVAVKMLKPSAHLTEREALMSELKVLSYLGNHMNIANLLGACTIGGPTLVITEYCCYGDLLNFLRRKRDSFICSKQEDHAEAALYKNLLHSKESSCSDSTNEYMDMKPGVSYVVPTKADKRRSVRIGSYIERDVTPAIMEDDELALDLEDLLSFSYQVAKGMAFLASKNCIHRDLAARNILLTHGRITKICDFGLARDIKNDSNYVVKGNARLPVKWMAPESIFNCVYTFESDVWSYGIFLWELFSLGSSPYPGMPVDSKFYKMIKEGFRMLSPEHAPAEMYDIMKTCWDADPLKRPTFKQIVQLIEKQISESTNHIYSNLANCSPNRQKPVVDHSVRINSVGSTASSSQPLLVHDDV
# T3 sequence (P10721 with tags, fused parts or gaps DEL560-576): as the sequence (P10721 with tags, fused parts or gaps DEL560-576/V654A) above, with A612V counted along it
Structure (SMILES),IC50 (c-Kit(V654A)) [nM],IC50 [1] [nM],solubility at 120 min [2] [µM],"efflux ratio at 2 h, 1 μM [3]",IC50 [4] [nM],solubility [5]
"c1ccn2c(-c3cc(NCc4ccc(C5=NCCN5)cc4)ncn3)cnc2c1 [A15, [4-(4,5-Dihydro-1H-imidazol-2-yl)-benzyl]-(6-imidazo[1,2-a]pyridin-3-yl-pyrimidin-4-yl)-amine]",320,,≥ 25,,,
"Cn1cc(-c2ccc(CNc3cc(-c4cnc5cc(CCN6CCN(C7COC7)CC6)ccn45)ncn3)cc2)cn1 [A170, [4-(1-methyl-1H-pyrazol-4-yl)-benzyl]-(6-{7-[2-(4-oxetan-3-yl-piperazin-1-yl)-ethyl]-imidazo[1,2-a]pyridin-3-yl}-pyrimidin-4-yl)-amine]",33,330,≥ 25,,,
"Cn1ncc(-c2ccc(CNc3cc(-c4cnc5cc(OCCN6CCC6)ccn45)ncn3)cc2)n1 [A100, 6-{7-[2-(azetidin-1-yl)ethoxy]imidazo[1,2-a]pyridin-3-yl}-N-{[4-(2-methyl-2H-1,2,3-triazol-4-yl)phenyl]methyl}pyrimidin-4-amine]",9.2,38,≥ 25,< 15,,
"Cc1cc(N2CCCC2)ncc1CNc1cc(-c2cnc3ccccn23)ncn1 [A154, (6-imidazo[1,2-a]pyridin-3-yl-pyrimidin-4-yl)-(4-methyl-6-pyrrolidin-1-yl-pyridin-3-ylmethyl)-amine]",180,,≥ 25,,,
"Cc1cc(N2CC[C@@H](F)C2)ncc1CNc1cc(-c2cnc3ccccn23)ncn1 [A156, [6-((R)-3-fluoro-pyrrolidin-1-yl)-4-methyl-pyridin-3-ylmethyl]-(6-imidazo[1,2-a]pyridin-3-yl-pyrimidin-4-yl)-amine]",180,,≥ 25,,,
"COc1ccn2c(-c3cc(NCc4ccc(N5CCCCC5=O)cc4)ncn3)cnc2c1 [A12, 1-(4-{[(6-{7-methoxyimidazo[1,2-a]24yridine-3-yl}pyrimidin-4-yl)amino]methyl}phenyl)piperidin-2-one]",87,1100,≥ 25,,,
"Cn1cc(-c2ccc(CNc3cc(-c4cnc5cc(OCCCN6CCCC6)ccn45)ncn3)cc2)cn1 [A75, [4-(1-methyl-1H-pyrazol-4-yl)-benzyl]-{6-[7-(3-pyrrolidin-1-yl-propoxy)-imidazo[1,2-a]pyridin-3-yl]-pyrimidin-4-yl}-amine]",8.5,59,≥ 25,< 15,2.9,
"Cn1cc(-c2ccc(CNc3cc(-c4cnc5cc(CCN6CCCC6)ccn45)ncn3)cc2)cn1 [A168, [4-(1-methyl-1H-pyrazol-4-yl)-benzyl]-{6-[7-(2-pyrrolidin-1-yl-ethyl)-imidazo[1,2-a]pyridin-3-yl]-pyrimidin-4-yl}-amine]",27,630,≥ 25,< 15,,
Cn1cc(-c2ccc(CNc3cc(-c4cnc5cc(OCCCN6CCC6)ccn45)ncn3)cc2)cn1 [A102],9.8,46,,,3,at least 25 μM
"c1ccn2c(-c3cc(NCc4ccc(-n5ccnc5)cc4)ncn3)cnc2c1 [A8, (6-Imidazo[1,2-a]23yridine-3-yl-pyrimidin-4-yl)-(4-imidazol-1-yl-benzyl)-amine]",23,500,≥ 25,< 15,,
"c1cn(-c2ccc(CNc3cc(-c4cnc5cc(OCC6CCN(C7COC7)CC6)ccn45)ncn3)cc2)nn1 [A83, {6-[7-(1-oxetan-3-yl-piperidin-4-ylmethoxy)-imidazo[1,2-a]pyridin-3-yl]-pyrimidin-4-yl}-(4-[1,2,3]triazol-1-yl-benzyl)-amine]",25,310,≥ 25,,,

# Stronger by IC50 (c-Kit(V654A)), values ahead:
IC50 (c-Kit(V654A)) [nM],IC50 [1] [nM],solubility at 120 min [2] [µM],"efflux ratio at 2 h, 1 μM [3]",IC50 [4] [nM],solubility [5],Structure (SMILES)
8.2,62,≥ 25,15 to 50,,,"Cn1cc(-c2ccc(CNc3cc(-c4cnc5cc(OCCN6CCC6)ccn45)ncn3)cc2)cn1 [A99, 6-{7-[2-(azetidin-1-yl)ethoxy]imidazo[1,2-a]pyridin-3-yl}-N-{[4-(1-methyl-1H-pyrazol-4-yl)phenyl]methyl}pyrimidin-4-amine]"
2.9,52,≥ 25,< 15,2.3,,"Cn1ncc(-c2ccc(CNc3cc(-c4cnc5cc(OCCCN6CCC6)ccn45)ncn3)cc2)n1 [A120, {6-[7-(3-azetidin-1-yl-propoxy)-imidazo[1,2-a]pyridin-3-yl]-pyrimidin-4-yl}-[4-(2-methyl-2H-[1,2,3]triazol-4-yl)-benzyl]-amine]"
1.1,10000,≥ 25,< 15,,,"Cc1nc(-c2ccc(CNc3cc(-c4cnc5cc(OCCCN6CCCC6)ccn45)ncn3)cc2)co1 [A242, [4-(2-methyl-oxazol-4-yl)-benzyl]-{6-[7-(3-pyrrolidin-1-yl-propoxy)-imidazo[1,2-a]pyridin-3-yl]-pyrimidin-4-yl}-amine]"
8,70,≥ 25,< 15,4.9,,"Cn1cc(-c2ccc(CNc3cc(-c4cnc5cc(OCCN6CCCC6)ccn45)ncn3)cc2)cn1 [A60, [4-(1-methyl-1H-pyrazol-4-yl)-benzyl]-{6-[7-(2-pyrrolidin-1-yl-ethoxy)-imidazo[1,2-a]pyridin-3-yl]-pyrimidin-4-yl}-amine]"
6.4,120,≥ 25,< 15,6.4,,"F[C@@H]1CCN(c2ccc(CNc3cc(-c4cnc5ccccn45)ncn3)cn2)C1 [A153, N-({6-[(3R)-3-fluoropyrrolidin-1-yl]pyridin-3-yl}methyl)-6-{imidazo[1,2-a]pyridin-3-yl}pyrimidin-4-amine]"
4,98,≥ 25,< 15,,,"Cn1ncc(-c2ccc(CNc3cc(-c4cnc5cc(OCCN6CCCC6)ccn45)ncn3)cc2)n1 [A73, [4-(2-methyl-2H-[1,2,3]triazol-4-yl)-benzyl]-{6-[7-(2-pyrrolidin-1-yl-ethoxy)-imidazo[1,2-a]pyridin-3-yl]-pyrimidin-4-yl}-amine]"
2.2,47,≥ 25,< 15,,,"c1nc(NCc2ccc(-c3cocn3)cc2)cc(-c2cnc3cc(OCCCN4CCCC4)ccn23)n1 [A252, (4-oxazol-4-yl-benzyl)-{6-[7-(3-pyrrolidin-1-yl-propoxy)-imidazo[1,2-a]pyridin-3-yl]-pyrimidin-4-yl}-amine]"
7.3,210,≥ 25,> 50,,,"Cn1cc(-c2ccc(CNc3cc(-c4cnc5cc(OCCN6CCN7CCC6C7)ccn45)ncn3)cc2)cn1 (stereo not shown) [A212, (6-{7-[2-(1,4-diaza-bicyclo[3.2.1]oct-4-yl)-ethoxy]-imidazo[1,2-a]pyridin-3-yl}-pyrimidin-4-yl)-[4-(1-methyl-1H-pyrazol-4-yl)-benzyl]-amine]"
6.2,270,≥ 25,,,,"c1ccn2c(-c3cc(NCc4ccc(N5CC6CC6C5)nc4)ncn3)cnc2c1 (stereo not shown) [A149, [6-(3-aza-bicyclo[3.1.0]hex-3-yl)-pyridin-3-ylmethyl]-(6-imidazo[1,2-a]pyridin-3-yl-pyrimidin-4-yl)-amine]"
2.8,45,≥ 25,< 15,2.4,,"Cn1ncc(-c2ccc(CNc3cc(-c4cnc5cc(OCCCN6CCCC6)ccn45)ncn3)cc2)n1 [A84, [4-(2-methyl-2H-[1,2,3]triazol-4-yl)-benzyl]-{6-[7-(3-pyrrolidin-1-yl-propoxy)-imidazo[1,2-a]pyridin-3-yl]-pyrimidin-4-yl}-amine]"

# Source: US12655142B2 (Merck Patent GmbH, priority 2019, dated 2026)
